Source: patent publication US20130136772A1, “REGULATION OF IMMUNE RESPONSE BY COLOCYNTHIN AND/OR ITS DERIVATIVES” (priority 2010, published 2013)

Tests used:
[1] = test system: CD8+ T cells; test: Lymphocyte immunophenotyping, CD8+ T cell population in SRBC immunised mice; assay type: in vivo, Swiss albino mice; conditions: graded doses; most significant suppression at 5 and 10 mg/kg vs sensitized control
Description: Immunophenotyping focuses on lymphocyte populations involved in acquired immunity. Specific molecules present on the cell surface defines characteristics of lymphocytes such as state of activation or functional capabilities. Murine monoclonal antibodies conjugated to a fluorochrome and directed against co-receptors CD4 and CD8 were used in a multi parametric flowcytometric assay to quantify the lymphocyte subsets associated with the cell-mediated immune response.
Estimation of T cell surface markers: On day 0, mice were immunized by injecting 200 μl of 5×10^9 SRBC/ml intraperitonially. Drug administration was carried out for 6 days including the day of immunization. Same amount of SRBC was used to challenge the animals on day 7. After 24 h of challenge, blood was taken from retro-orbital plexus of animals for estimation of CD4^+ and CD8^+ T cells. 100 μl of whole blood was taken in each tube and FITC (fluorescein isothiocyanate) labelled CD4+ and PE (phycoerythrin) labelled CD8+ monoclonal antibodies were added and mixed gently. Tubes were incubated in the dark for 30 min. at room temperature. Subsequently, 2 ml of 1× FACS lysing solution was added at room temperature with gentle mixing. Samples were again incubated at room temperature for 10 min. […]

[2] = test system: TNF-α; test: In vivo TNF-α estimation in serum of LPS challenged mice; design: species or system balb/c mice; conditions: 1, 2.5, 5 and 10 mg/kg oral for 6 days, LPS 1 mg/kg i.v., serum 90 min after LPS
Protocol: (§1) Invivo experiments were carried out using balb/c mice that were orally administrated with graded oral doses of AD-B-63B (1, 2.5, 5 and 10 mg/kg) for 6 days and challenged with LPS. Nitric oxide (NO) is an important mediator of diverse physiologic and pathologic processes, including many inflammatory diseases [Abramson S B, Amin A R, Clancy R M, Attur M, (2001). The role of nitric oxide in tissue destruction. Best Practice & Research Clinical Rheumatology; 15: 831-845]. Several lines of evidence implicate NO in the pathogenesis of inflammation. For example, rodents in animal models of arthritis generate abundant quantities of NO, as reflected in high levels of serum and urinary NO that develop in association with disease manifestations [Stefanovic-Racic M, Meyers K, Meschter C, Coffey J W, Hoffman R A, Evans C H, (1994). Monomethyl arginine, an inhibitor of nitric oxide synthase, suppresses the development of adjuvant arthritis in rats. Arthritis & Rheumatism; 37: 1062-1069.] [McCartney-Francis N, Allen J B, Mizel D E, Albina J E, Xie Q W, Nathan C F, Wahl S M, (1993). Suppression of arthritis by an inhibitor of nitric oxide synthase. Journal of Experimental Medicine; 178: 749-754.] [Weinberg J B, (1998). […] TNF-α, IL-1 beta and Nitric oxide production was evaluated by a commercial ELISA kits (R&D Systems) in serum from AD-B-63B treated mice, 90 min after LPS injection.

[3] = test system: vascular permeability; test: Acetic acid-induced vascular permeability; assay type: in vivo, mice; conditions: for DYE CONCENTRATION: Evans blue, acetic acid i.p.
Protocol: Acetic acid-induced increased vascular permeability in mouse model is a capillary permeability assay. Reduction in the increased peritoneal vascular permeability indicates the suppression of the vascular response in the process of acute inflammation.
Mice were injected with […] of Evans blue dye (0.25% w/v in normal saline) intravenously after 30 min of oral administration of the drug. Fifteen minutes later, the mice were injected intraperitoneally (1 ml/100 g of body weight) with freshly prepared 0.6% of acetic acid (v/v) in normal saline. After 30 min of acetic acid injection, the peritoneal cavities were washed with 5 ml of heparinised sterile normal saline and centrifuged (3000×g) for 10 min Absorbance of the supernatant was measured at 610 nm using a spectrophotometer (Table 3) [Whittle B. A. The use of changes in capillary permeability in mice to distinguish between narcotic and non-narcotic analgesics. Brit J Pharmacol 1964; 2: 246-253].

[4] = test system: macrophage phagocytic response; test: Clearance rate of carbon particles from the circulation (phagocytic index, in vivo); design: species or system mice
Protocol: K., Sharma, M. L., Kaul, A and Khajuria, A. (1986) Immunomodulating agents of plant origin. 1. Preliminary screening. Journal of Ethnopharmacology. 18, 133-141.] Blood samples were collected before and at intervals varying between 2 and 90 min after carbon injection. An aliquot (10 μL) of blood samples were lysed with 2mL of 0.1% acetic acid and the transparency determined spectrophotometrically at 675 nm (Uvikon 810, spectrophotometer, Kontron Ltd., Switzerland) (Hudson and Hay, 1980). AD-B-63B was administered orally for 7 days and 30 min prior to the carbon injection. The rate of carbon clearance termed as phagocytic index was calculated (Table 4).

[5] = test system: Nitric oxide (NO); test: In vivo nitric oxide estimation in serum of LPS challenged mice; design: species or system balb/c mice; conditions: 1, 2.5, 5 and 10 mg/kg oral for 6 days, LPS 1 mg/kg i.v., serum 90 min after LPS
Protocol: as §1

Structure (SMILES): CC(=O)OC(C)(C)/C=C/C(=O)[C@](C)(O)[C@H]1[C@H](O)C[C@@]2(C)[C@@H]3CC=C4[C@@H](C=C(O[C@@H]5O[C@H](CO)[C@@H](O)[C@H](O)[C@H]5O)C(=O)C4(C)C)[C@]3(C)C(=O)C[C@]12C [AD-B-63B, 2-O-β-D-glucopyranosyl cucurbitacin E]
- percentage of CD8+ T-cell population [1]: decrease
- Level of serum TNF-α [2]: significant reduction
- percent reduction of dye concentration ([3]; 1 mg/kg p.o.): (10.71%↓)
- DYE CONCENTRATION ([3]; 1 mg/kg p.o.): 0.50 ± 0.02 μg/25 g mouse
- percent reduction of dye concentration ([3]; 5 mg/kg p.o.): 32.14%
- DYE CONCENTRATION ([3]; 5 mg/kg p.o.): 0.38 ± 0.02 μg/25 g mouse
- percent reduction of dye concentration ([3]; 5 mg/kg p.o., listed as AD-B-63-B): (32.14%↓)
- percent reduction of dye concentration ([3]; 10 mg/kg p.o.): 35.71%
- DYE CONCENTRATION ([3]; 10 mg/kg p.o.): 0.36 ± 0.02 μg/25 g mouse
- percent reduction of dye concentration ([3]; 10 mg/kg p.o., listed as AD-B-63-B): (35.71%↓)
- percent decrease in phagocytic index ([4]; 1 mg/kg): (14.28%↓)
- Phagocytic index [in vivo study] Mean ± S.E. ([4]; 1 mg/kg orally for 7 days): 1.08 ± 0.09
- percent decrease in phagocytic index ([4]; 5 mg/kg): (26.98%↓)
- Phagocytic index [in vivo study] Mean ± S.E. ([4]; 5 mg/kg orally for 7 days): 0.92 ± 0.04
- percent decrease in phagocytic index ([4]; 10 mg/kg): (26.19%↓)
- Phagocytic index [in vivo study] Mean ± S.E. ([4]; 10 mg/kg orally for 7 days): 0.93 ± 0.07
- decrease in phagocytic index ([4]; dose range of 1-10 mg/kg, oral for 7 days): 14.28-26.19%
- Level of serum NO [5]: significant reduction
